Measured values as given in patent publication US20260223897A1, “SIAMENOSIDE I SWEETENED BEVERAGES WITH MOGROSIDE BLENDS” (The Coca-Cola Company, priority 2023, published 2026).

Assay: Taste of blends with siamenoside I, findings summarised in the description
Conditions: blended with siamenoside I in certain ratios

| Molecule | taste attributes when blended with siamenoside I vs siamenoside I only sweetened beverages |
| --- | --- |
| C[C@H](CC[C@@H](O[C@@H]1O[C@H](CO[C@@H]2O[C@H](CO)[C@@H](O)[C@H](O)[C@H]2O)[C@@H](O)[C@H](O)[C@H]1O[C@@H]1O[C@H](CO)[C@@H](O)[C@H](O)[C@H]1O)C(C)(C)O)[C@H]1CC[C@@]2(C)C3CC=C4[C@@H](CC[C@H](O[C@@H]5O[C@H](CO)[C@@H](O[C@@H]6O[C@H](CO)[C@@H](O)[C@H](O)[C@H]6O)[C@H](O)[C@H]5O)C4(C)C)[C@]3(C)C(=O)C[C@]12C (stereo partly drawn) [11-Oxoisomogroside V, 11- Oxoisomogroside V] | less objectionable taste attributes |
| C[C@H](CC[C@@H](O[C@@H]1O[C@H](CO[C@@H]2O[C@H](CO)[C@@H](O)[C@H](O)[C@H]2O)[C@@H](O)[C@H](O)[C@H]1O[C@@H]1O[C@H](CO)[C@@H](O)[C@H](O)[C@H]1O)C(C)(C)O)[C@H]1CC[C@@]2(C)C3CC=C4[C@@H](CC[C@H](O[C@@H]5O[C@H](CO)[C@@H](O[C@@H]6O[C@H](CO)[C@@H](O)[C@H](O)[C@H]6O)[C@H](O)[C@H]5O)C4(C)C)[C@]3(C)[C@H](O)C[C@]12C (stereo partly drawn) [Isomogroside V] | less objectionable taste attributes |
| C[C@H](CC[C@@H](O[C@@H]1O[C@H](CO[C@@H]2O[C@H](CO)[C@@H](O)[C@H](O)[C@H]2O)[C@@H](O)[C@H](O)[C@H]1O)C(C)(C)O)[C@H]1CC[C@@]2(C)C3CC=C4[C@@H](CC[C@H](O[C@@H]5O[C@H](CO)[C@@H](O)[C@H](O)[C@H]5O)C4(C)C)[C@]3(C)C(=O)C[C@]12C (stereo partly drawn) [11-Oxomogroside III] | less objectionable taste attributes |
| C[C@H](CC[C@@H](O[C@@H]1O[C@H](CO)[C@@H](O)[C@H](O)[C@H]1O)C(C)(C)O)[C@H]1CC[C@@]2(C)C3CC=C4[C@@H](CC[C@H](O[C@@H]5O[C@H](CO)[C@@H](O)[C@H](O)[C@H]5O)C4(C)C)[C@]3(C)[C@H](O)C[C@]12C (stereo partly drawn) [Mogroside IIE] | less objectionable taste attributes |
| C[C@H](CC[C@@H](O[C@@H]1O[C@H](CO[C@@H]2O[C@H](CO)[C@@H](O)[C@H](O)[C@H]2O)[C@@H](O)[C@H](O)[C@H]1O[C@@H]1O[C@H](CO)[C@@H](O)[C@H](O)[C@H]1O)C(C)(C)O)[C@H]1CC[C@@]2(C)C3CC=C4[C@@H](CC[C@H](O[C@@H]5O[C@H](CO[C@@H]6O[C@H](CO)[C@@H](O)[C@H](O)[C@H]6O)[C@@H](O)[C@H](O)[C@H]5O)C4(C)C)[C@]3(C)[C@H](O)C[C@]12C (stereo partly drawn) [11-Oxomogroside V] | less objectionable taste attributes |
| C[C@H](CC[C@@H](O[C@@H]1O[C@H](CO[C@@H]2O[C@H](CO)[C@@H](O)[C@H](O)[C@H]2O)[C@@H](O)[C@H](O)[C@H]1O)C(C)(C)O)[C@H]1CC[C@@]2(C)C3CC=C4[C@@H](CC[C@H](O[C@@H]5O[C@H](CO)[C@@H](O)[C@H](O)[C@H]5O)C4(C)C)[C@]3(C)[C@H](O)C[C@]12C (stereo partly drawn) [Mogroside III] | less objectionable taste attributes |

Same assay, conditions: in certain blends

| Molecule | perception of bitterness in blends |
| --- | --- |
| C[C@H](CC[C@@H](O)C(C)(C)O)[C@H]1CC[C@@]2(C)[C@@H]3CC=C4[C@@H](CC[C@H](O[C@@H]5O[C@H](CO[C@@H]6O[C@H](CO)[C@@H](O)[C@H](O)[C@H]6O)[C@@H](O)[C@H](O)[C@H]5O)C4(C)C)[C@]3(C)C(=O)C[C@]12C [11-Oxomogroside IIA2] | increase the perception of bitterness |
| C[C@H](CC[C@@H](O)C(C)(C)O)[C@H]1CC[C@@]2(C)[C@@H]3CC=C4[C@@H](CC[C@H](O[C@@H]5O[C@H](CO[C@@H]6O[C@H](CO)[C@@H](O)[C@H](O)[C@H]6O)[C@@H](O)[C@H](O)[C@H]5O)C4(C)C)[C@]3(C)[C@H](O)C[C@]12C [Mogroside IIA2] | increase the perception of bitterness |
| C[C@H](CC[C@@H](O[C@@H]1O[C@H](CO[C@@H]2O[C@H](CO)[C@@H](O)[C@H](O)[C@H]2O)[C@@H](O)[C@H](O)[C@H]1O)C(C)(C)O)[C@H]1CC[C@@]2(C)C3CC=C4[C@@H](CC[C@H](O)C4(C)C)[C@]3(C)[C@H](O)C[C@]12C (stereo partly drawn) [Mogroside IIA1] | increase the perception of bitterness |
| C[C@H](CC[C@@H](O[C@@H]1O[C@H](CO[C@@H]2O[C@H](CO)[C@@H](O)[C@H](O)[C@H]2O)[C@@H](O)[C@H](O)[C@H]1O)C(C)(C)O)[C@H]1CC[C@@]2(C)C3CC=C4[C@@H](CC[C@H](O)C4(C)C)[C@]3(C)C(=O)C[C@]12C (stereo partly drawn) [11-Oxomogroside IIA1] | increase the perception of bitterness |
| C[C@H](CC[C@@H](O[C@@H]1O[C@H](CO[C@@H]2O[C@H](CO)[C@@H](O)[C@H](O)[C@H]2O)[C@@H](O)[C@H](O)[C@H]1O)C(C)(C)O)[C@H]1CC[C@@]2(C)C3CC=C4[C@@H](CC[C@H](O[C@@H]5O[C@H](CO)[C@@H](O)[C@H](O)[C@H]5O)C4(C)C)[C@]3(C)C(=O)C[C@]12C (stereo partly drawn) [11-Oxomogroside III] | increase the perception of bitterness |
| C[C@H](CC[C@@H](O)C(C)(C)O)[C@H]1CC[C@@]2(C)C3CC=C4[C@@H](CC[C@H](O[C@@H]5O[C@H](CO)[C@@H](O)[C@H](O)[C@H]5O)C4(C)C)[C@]3(C)[C@H](O)C[C@]12C (stereo partly drawn) [Mogroside IE] | increase the perception of bitterness |
| C[C@H](CC[C@@H](O[C@@H]1O[C@H](CO)[C@@H](O)[C@H](O)[C@H]1O)C(C)(C)O)[C@H]1CC[C@@]2(C)C3CC=C4[C@@H](CC[C@H](O[C@@H]5O[C@H](CO[C@@H]6O[C@H](CO)[C@@H](O)[C@H](O)[C@H]6O)[C@@H](O)[C@H](O)[C@H]5O)C4(C)C)[C@]3(C)[C@H](O)C[C@]12C (stereo partly drawn) [Mogroside IIIA2] | increase the perception of bitterness |
| C[C@H](CC[C@@H](O[C@@H]1O[C@H](CO)[C@@H](O)[C@H](O)[C@H]1O)C(C)(C)O)[C@H]1CC[C@@]2(C)C3CC=C4[C@@H](CC[C@H](O[C@@H]5O[C@H](CO)[C@@H](O)[C@H](O)[C@H]5O)C4(C)C)[C@]3(C)C(=O)C[C@]12C (stereo partly drawn) [11-Oxomogroside IIE] | increase the perception of bitterness |
| C[C@H](CC[C@@H](O[C@@H]1O[C@H](CO)[C@@H](O)[C@H](O)[C@H]1O)C(C)(C)O)[C@H]1CC[C@@]2(C)C3CC=C4[C@@H](CC[C@H](O)C4(C)C)[C@]3(C)[C@H](O)C[C@]12C (stereo partly drawn) [Mogroside IA] | increase the perception of bitterness |
| C[C@H](CC[C@@H](O[C@@H]1O[C@H](CO)[C@@H](O)[C@H](O)[C@H]1O[C@@H]1O[C@H](CO)[C@@H](O)[C@H](O)[C@H]1O)C(C)(C)O)[C@H]1CC[C@@]2(C)[C@@H]3CC=C4[C@@H](CC[C@H](O)C4(C)C)[C@]3(C)C(=O)C[C@]12C [11-Oxomogroside IIA] | increase the perception of bitterness |
| C[C@H](CC[C@@H](O[C@@H]1O[C@H](CO)[C@@H](O)[C@H](O)[C@H]1O[C@@H]1O[C@H](CO)[C@@H](O)[C@H](O)[C@H]1O)C(C)(C)O)[C@H]1CC[C@@]2(C)[C@@H]3CC=C4[C@@H](CC[C@H](O)C4(C)C)[C@]3(C)[C@H](O)C[C@]12C [Mogroside IIA] | increase the perception of bitterness |
| C[C@H](CC[C@@H](O[C@@H]1O[C@H](CO[C@@H]2O[C@H](CO)[C@@H](O)[C@H](O)[C@H]2O)[C@@H](O)[C@H](O)[C@H]1O)C(C)(C)O)[C@H]1CC[C@@]2(C)C3CC=C4[C@@H](CC[C@H](O[C@@H]5O[C@H](CO[C@@H]6O[C@H](CO)[C@@H](O)[C@H](O)[C@H]6O)[C@@H](O)[C@H](O)[C@H]5O)C4(C)C)[C@]3(C)[C@H](O)C[C@]12C (stereo partly drawn) [Mogroside IVA] | increase the perception of bitterness |

Same assay, conditions: when present in certain amounts in blends with siamenoside I

| Molecule | impact on bitterness in blends with siamenoside I |
| --- | --- |
| 11-oxomogroside I | do not impact bitterness |
| C[C@H](CC[C@@H](O[C@@H]1O[C@H](CO)[C@@H](O)[C@H](O)[C@H]1O[C@@H]1O[C@H](CO)[C@@H](O)[C@H](O)[C@H]1O)C(C)(C)O)[C@H]1CC[C@@]2(C)C3CC=C4[C@@H](CC[C@H](O[C@@H]5O[C@H](CO)[C@@H](O)[C@H](O)[C@H]5O)C4(C)C)[C@]3(C)[C@H](O)C[C@]12C (stereo partly drawn) [Mogroside IIIE] | do not impact bitterness |
| C[C@H](CC[C@@H](O[C@@H]1O[C@H](CO[C@@H]2O[C@H](CO)[C@@H](O)[C@H](O)[C@H]2O)[C@@H](O)[C@H](O)[C@H]1O[C@@H]1O[C@H](CO)[C@@H](O)[C@H](O)[C@H]1O)C(C)(C)O)[C@H]1CC[C@@]2(C)[C@@H]3CC=C4[C@@H](CC[C@H](O[C@@H]5O[C@H](CO[C@@H]6O[C@H](CO)[C@@H](O)[C@H](O)[C@H]6O)[C@@H](O)[C@H](O)[C@H]5O)C4(C)C)[C@]3(C)[C@H](O)C[C@]12C [Mogroside V] | do not impact bitterness |
